Measurements as given in ChEMBL document CHEMBL3507680, “University of Dundee, Gates Library screen for HepG2 cell viability”.

Assay: Human HepG2 cell viability assay in 384 well format
Format: toxicity, cell-based
Set-up: dose 125 nL, time 70.5 hour; concentration not given beside the values
Details: HepG2 cells, read-out: Inhibition

Row | SMILES | cytotoxicity at 70.5 h [%]
1 | CCOCc1ccccc1NC(=O)NC1CCN(c2ccccc2)C1 (configuration not stated) | -4.36
2 | CC(C)n1ccnc1CN1CCCN(C(=O)c2ncccc2O)CC1 | 0.148
3 | COCCN(C)C(C(=O)O)c1ccc(F)c(C)c1 (configuration not stated) | -2.89
4 | CC1(C)CC(N(Cc2ccncc2)Cc2cccnc2)CC(C)(C)N1 | 27.1
5 | COc1ncc(C2(O)CCN(Cc3cc(F)cc(F)c3)CC2)c(OC)n1 | -2.18
6 | COCCNC(=O)Cn1cc(NC(=O)c2cc(Cl)c(Cl)n2C)cn1 | 0.862
7 | CCc1noc(C)c1C(=O)N1C[C@H](NS(C)(=O)=O)[C@@H](C2CC2)C1 | -3.78
8 | CCOCC(=O)NC(C)Cc1ccccc1Br (configuration not stated) | -4.95
9 | CC(NC(=O)NCCCn1cncn1)c1ccc2c(c1)CC(=O)N2 (configuration not stated) | -1.37
10 | COc1ccc(CN2C[C@@H](F)[C@@H](OCc3nc4ccccc4[nH]3)C2)cn1 | -2.98
11 | C[C@@H]1CN(Cc2ccccc2F)CC(C(N)=O)O1 (some centres not stated) | -14.1
12 | Cc1nc(CNC(=O)Nc2cc(F)ccc2N2CCN(C)CC2)no1 | -2.28
13 | Nc1nc(CCC(=O)N2C[C@H](c3ccccc3)[C@@H](N)C2)cs1 | -20.5
14 | CCC(CO)N(Cc1ccccn1)C(=O)c1ncccc1C (configuration not stated) | 15.2
15 | CCc1nccn1CC(=O)Nc1cccc(C(=O)OC)c1 | -5.31
16 | CCOCc1ccccc1NC(=O)NC1CCN(CC(F)(F)F)C1 (configuration not stated) | -6.42
17 | COc1cccc(CN(C)Cc2ccc(C#N)cc2)c1OC | -1.54
18 | Fc1cnc(N2CCO[C@H]3CN(CC4CCC4)C[C@H]32)nc1 | -0.999
19 | Cc1nnn2c1COCC(CNC(=O)c1cnoc1C)C2 (configuration not stated) | 0.126
20 | Cc1noc(-c2ccc(N[C@H]3CCCCNC3=O)nc2)n1 | -1.42
21 | Cc1nc(C)n(CC2CN(CC(=O)Nc3ccncc3)CCO2)n1 (configuration not stated) | -5.56
22 | O=C(N[C@@H]1CCCNC1)C1(Oc2ccc(Cl)cc2)CCNCC1 | 13.1
23 | O=C(NC[C@@H]1CCCO1)c1cccnc1N1CCCC1c1ccccn1 (some centres not stated) | -3.08

Row | SMILES | cytotoxicity at 70.5 h [%]
24 | CCc1nc(C)c(C(=O)NCCNc2ncccn2)s1 | -6.37
25 | CCOc1ccc(N2CCCN=C2NC(=O)c2cccc(Cl)c2)cc1 | -9.1
26 | Cc1ccc(N2CCCN(C(=O)c3cc(Cl)c[nH]3)CC2)nn1 | -8.66
27 | Cn1ccnc1CN1CCN(CC(O)c2ccco2)CC1 (configuration not stated) | -25.9
28 | NC(=O)CN1CC2(CCC1=O)CCN(Cc1ccccc1F)CC2 | -5.65
29 | Cc1noc(C2CCN(c3oc(C)nc3C#N)CC2)n1 | 2.04
30 | COCC1CN(CCc2ccc(OC)c(OC)c2)Cc2c1cnn2C (configuration not stated) | -8.2
31 | CC1(C)CN(C(=O)c2ncc(F)cc2F)CCC1(O)CN1CCOCC1 (configuration not stated) | -0.112
32 | c1cc(CN2CCOC[C@H]2c2nc(-c3ccncc3)c[nH]2)ccn1 | 1.86
33 | CCOC(=O)[C@H]1[C@@H](O)C(=O)N(C)C12CCN(C(=O)CC1CCCC1)CC2 | -3.01
34 | CNC(=O)[C@@H]1COC[C@H]2CN(C(=O)c3cccc(OC)c3)C[C@H]21 | 9.55
35 | CC(C)CN1CCN(Cc2nc3c(s2)CCCC3)[C@H]2CS(=O)(=O)C[C@H]21 | 10.7
36 | CC(NC(=O)Nc1ccc(S(C)(=O)=O)cc1)c1ccc2c(c1)CC(=O)N2 (configuration not stated) | -7.73
37 | Cc1cc(C(=O)N(CC(=O)O)CC(C)C)ccc1F | -7.96
38 | Cc1nc(-c2cccc(N3CCC(NC4CCSC4)CC3)c2)cs1 (configuration not stated) | -1.58
39 | CCn1cc(S(=O)(=O)NCC(OC)c2ccccc2)cn1 (configuration not stated) | -3.94
40 | Cc1ccc(CNC(=O)N2CCN(C(C)c3cccnc3)CC2)cn1 (configuration not stated) | -3.85
41 | COCC(=O)N[C@H]1C[C@@H](Cc2cc(CN3CCCCC3)on2)C1(C)C | 24.1
42 | COC(=O)N1CCCC(C(=O)NCCc2c[nH]c3cc(C)ccc23)C1 (configuration not stated) | -10.8
43 | CCN(C)C[C@@H]1CN(Cc2cccc(O)c2)C[C@@H]1CO | -11.8
44 | O=C(CC1CCCN1S(=O)(=O)N1CCCCC1)c1cccs1 (configuration not stated) | -3.32
45 | Cc1ccc(CN2CCNC(=O)C2CC(=O)NCc2n[nH]c(C)n2)cc1 (configuration not stated) | -3.13
46 | Cc1noc(C)c1-c1cncc(C2CCCN2Cc2cn(C)cn2)n1 (configuration not stated) | -5.21

Row | SMILES | cytotoxicity at 70.5 h [%]
47 | O=C(c1cccs1)N1CC[C@H]2[C@@H]1CCC(=O)N2c1cccnc1 | -11.5
48 | CC1=Nc2c(c(=O)[nH]n2C(C)C)C(c2ccc(F)c(F)c2)S1 (configuration not stated) | -4.57
49 | OCC1(O)CCCN(Cc2ccc(-c3cc[nH]n3)s2)CC1 (configuration not stated) | -9.87
50 | COCCCN1CC2(CCCCN2C(=O)C2CCCCC2)CC1=O (configuration not stated) | -3.42
51 | Cc1cccc2c1nc(COCC(=O)O)n2-c1ccc(N)nc1 | 9.09
52 | CCOCCCNC(=O)C(C)n1cc(Br)cn1 (configuration not stated) | 1.42
53 | Cc1c(C)n(CC(O)CN2CCC(O)CC2)c2c(Cl)cccc12 (configuration not stated) | 16.5
54 | COCCN(C)C(=O)c1ccccc1-n1cc(CN(C)C)cn1 | -5.25
55 | COc1ccc2c(c1)nc1n2[C@@H](CN(C2CCC2)C2CCC2)COC1 | 1.4
56 | CC(CNC(=O)c1ccon1)Oc1cccc(Br)c1 (configuration not stated) | 4.03
57 | Cc1noc(C)c1C(=O)N1CC[C@H]2C[C@@H](c3nccs3)O[C@@H]2C1 | -13.5
58 | CC[C@@H]1N(Cc2ccsc2)CCC[C@]12CCC(=O)N2CCOC | -17.5
59 | CS(=O)(=O)N1CCC2(CC1)CC(CC(=O)N1CCCC1)c1ccccc12 (configuration not stated) | -10.4
60 | Cc1cc(C)cc(NCCC(=O)NCc2cccnc2N(C)C)c1 | -5.81
61 | CC(C)(C)C(=O)NCc1nccn1CCc1ccccc1 | -5.7
62 | COc1cccc2sc(OC3CN(C(=O)C4=COCCO4)C3)nc12 | -8.14
63 | C[C@@H]1CN(C(=O)c2ccsc2)C[C@]12CCN(c1ccsc1)C2=O | 1.23
64 | Cc1cc(F)c(S(=O)(=O)NCC(C)(C)N)cc1F | -10.9
65 | COc1ccc(C)cc1CNCc1ccc(-n2nc(C)cc2C)nc1 | 5.93
66 | CS(=O)(=O)NCC1CCCCN1C(=O)Nc1cccnc1N1CCCC1 (configuration not stated) | 39.8
67 | CC(C)OCCCNC(=O)c1ccc(-c2ccco2)[nH]c1=O | -2.82
68 | Cc1nc(COc2ccc(S(=O)(=O)N(C)C)cc2)sc1C | -24.1
69 | Cc1ccc(CNC(=O)NC2CCCN(c3ncccn3)C2)n1C (configuration not stated) | -8.01

Row | SMILES | cytotoxicity at 70.5 h [%]
70 | CC(C)c1nc(S(=O)(=O)N2CCSc3ccccc32)c[nH]1 | -3.59
71 | Cn1c(Cn2ncc(N3CCCC3)cc2=O)nc2ccccc21 | 25.6
72 | CCc1nc(C)c(CN2CCOC(Cc3ccccc3Cl)C2)[nH]1 (configuration not stated) | -6.82
73 | Cc1csc(CNC(=O)N2CCN(Cc3cc(C)on3)CC2)n1 | -3.55
74 | Cc1ccc(NC2CCN(C(=O)COc3cccc(F)c3)CC2)nn1 | 43.9
75 | CCn1c(CN2CCN(CC(N)=O)CC2)nc2c(F)cccc21 | -0.996
76 | O=C(CNCCn1cccn1)NCC1(c2ccccc2)CCC1 | 1.86
77 | Cc1cc2nc(C(C)C)cc(NC(C)c3nncn3C)n2n1 (configuration not stated) | -17.3
78 | CN(CC1CCCCO1)c1ncnc2cc(F)ccc12 (configuration not stated) | -9.25
79 | Cc1cc(C2CCCN2C(=O)c2cc3c(s2)CCC3)no1 (configuration not stated) | -0.925
80 | CC(C)n1cnc2c(N3CCCC3)nc(C3CCNCC3)cc21 | 5.44
81 | CC(C)C(C#N)N1CCN(C(=O)c2cc(-c3ccccn3)no2)CC1 (configuration not stated) | 3.13
82 | Cc1cc(CNC(=O)NCCC(=O)N2CCCc3ccccc32)no1 | 7.7
83 | NS(=O)(=O)c1ccc(CNCC(=O)NCc2ccc(Cl)cc2Cl)cc1 | -8.64
84 | CC(C(=O)N(C)Cc1ccco1)n1cncn1 (configuration not stated) | 1.02
85 | Cc1ccc(-c2nc(CCNC(=O)NCC(C)(C)C(N)=O)co2)cc1 | -0.0567
86 | O[C@@H]1C[C@H]2CN(CC3CCCCC3)[C@H](Cc3ccccc3)CN2C1 | 24.4
87 | CC(C)NC(=O)c1cc2c(s1)CCN2C(=O)CN(C)C | -4.91
88 | Cn1cc(C[C@H]2[C@H](O)CCN2C(=O)c2ccsc2)cn1 | -4.72
89 | Cc1cc(C(=O)N2CCc3nnc(N)cc3C2)c(C)n1C1CC1 | -12.1
90 | O=C(NCc1cccnc1-n1cncn1)c1ccc2c(c1)CCO2 | -1.03
91 | O=C1Nc2ccccc2NC12CCN(Cc1nnc(C3CC3)o1)CC2 | -5.39
92 | CC(=O)Nc1ccc(CCC2(NC(=O)C3CC3)CCCCC2)cn1 | -0.0205

Row | SMILES | cytotoxicity at 70.5 h [%]
93 | CS(=O)(=O)CCNC(=O)Nc1sc2ccccc2c1Cl | -11.7
94 | CCOc1cccc(C(=O)N2CCCn3nc(CCC(=O)O)cc3C2)c1 | -5.68
95 | CCc1nc(N2CCN(CCOC)CC2)c2cnn(C)c2n1 | -11.9
96 | CC(C)OCCN1CCc2cncnc2C1 | 4.2
97 | O=C(Cn1cnc(-c2cccs2)cc1=O)Nc1cccnc1 | -4.25
98 | CCCN(CC)C(=O)c1cc(Cn2c(C)nc3ccccc32)[nH]n1 | -4.58
99 | CS(=O)(=O)Cc1nc(CN2CCc3ccccc3CC2)cs1 | 5.16
100 | Cc1cccc(NS(=O)(=O)c2cc(C(=O)O)oc2C)c1 | -0.669
101 | O=C(O)CCN(Cc1ccc(F)c(F)c1)C(=O)C1CC1 | -11.3
102 | CCN1CCCCC1C(=O)N1CCC(OCCOC)CC1 (configuration not stated) | 1.39
103 | CCOC[C@@H]1CCC[C@@]12CN(Cc1cccnc1)CCO2 | -5.78
104 | COc1ccc(-c2noc(C3=NN(C)C(=O)CC3)n2)cc1OC | -3.46
105 | Cc1cc2c(=O)n3c(nc2s1)CCN(Cc1ccncc1)CC3 | -13.5
106 | CC(C)c1nnc(CCC(=O)N2CCCC(c3cnccn3)C2)o1 (configuration not stated) | -9.44
107 | Cc1cccc2cc(C(=O)N3CCSCC3)n(C)c12 | -3.37
108 | CC1CCCN(Cc2coc(-c3cccc(F)c3)n2)C1 (configuration not stated) | -5.26
109 | O=C(NC1CCC1)[C@H]1C[C@@H]2CN(S(=O)(=O)c3ccccc3)C[C@H]1O2 | -1.64
110 | COc1ccccc1[S+]([O-])CC(=O)NCc1cc(F)cc(F)c1 (configuration not stated) | 2.23
111 | COCCN1CCC2(CCN(C(=O)c3ccc(F)cc3)CC2)C1=O | 18.4
112 | COc1cccc(-c2cc(C(=O)NCCCC(F)(F)F)[nH]n2)c1 | 30.9
